Measured values as given in US6572860B1, “Immunogenic conjugated polypeptide for treatment of herpes simplex virus” (CEL-SCI Corporation, priority 1997, dated 2003).
“Also recorded” adds a separate entry of the source.

Legend:
[1] = test system: HSV-1; assay: Intraperitoneal challenge of vaccinated mice with an LD50 of HSV-1: symptoms and survival; format: in vivo; conditions: Balb/c mice 4 wk old, n=6, vaccinated twice, challenged with an LD50 of HSV-1; for disease symptoms (symptom score 1-5): FIG. 4; for survival / death: FIG. 5
Description: Similar tests as described above were carried out. Balb/c mice (4 wk old) (n=6) were unvaccinated (NO VAC) or vaccinated and revaccinated two weeks later with the H1 peptide or the indicated conjugated polypeptide. The mice were then challenged two weeks later with an LD50 of HSV-1. Symptoms were scored daily as:
(§1) 1. non-specific mild symptoms
(§2) 2. mild swelling of the abdomen
(§3) 3. significant swelling of the abdomen and malaise
The results are shown in FIG. 4 for symptoms, in FIG. 5 for survival and in FIG. 6 for DTH.

[2] = test system: HSV-1; assay: Intraperitoneal HSV-1 challenge of vaccinated mice, sub-lethal (<LD50) challenge: symptoms and survival; format: in vivo, Balb/c mice; conditions: for Symptomatic conditions after viral challenge (symptom score 1-5) / survival after viral challenge: Balb/c mice; for Symptomatic conditions after viral challenge (symptom score 1-5): 2 immunizations of 33 nmoles in Novasome adjuvant, i.p. sub-lethal HSV-1 challenge two weeks later; for survival after viral challenge: sub-lethal i.p. HSV-1 challenge, FIG. 2
Source text: An intraperitoneal challenge model using mice test animal was selected although the predominant presentation of HSV disease is not intraperitoneal since a reproducible course of disease occurs following viral challenge; since the viral challenge dose can be well defined and readily delivered by intraperitoneal injection since the symptoms are readily detected and the course of disease can be qualitatively evaluated; and since the relevant parameter of survival may be readily evaluated. Immune function studies may also be conducted in vitro to further characterize the responses to the test vaccines.
In a series of experiments, groups (12 per group) of 3 week old Balb/c female mice (Taconic Farms, Germantown, N.Y.) are immunized and test bled according to the following schedule. Schedule A: immunizations on day 0 and day 14, and two weeks later nine mice of each group are challenged moderately with a lethal dose (<LD50) of HSV (H129 clinical strain) administered intraperitoneally. In this regard, young Balb/c mice show a defined course of disease which progresses from abdominal swelling, lethargy, paraplegia, to death within 1 to 2 weeks. Therefore, the effectiveness of the vaccinations may be readily determined.
(§4) Each immunization consisted of 33 nmoles of conjugated polypeptide or non-conjugated antigenic peptide H1 (equivalent to 100 μg of the JH1 vaccine). The peptide was mixed with the Novasome liposomal adjuvant (50% v/v). The mice were immunized twice with a two week interval between inoculations. After an additional two weeks, most of the mice received an intraperitoneal challenge with the EKN clinical strain of HSV-1. The mice were evaluated daily for symptoms. […] Blood was obtained from selected mice for ELISA studies prior to immunization and prior to virus challenge. The results are shown in FIG. 1 for symptom (on a daily basis) and in FIG. 2 for survival following vaccination and sub-lethal challenge.
In FIG. 1 symptoms were scored daily as:
as §1, §2, §3

[3] = test system: ultraviolet inactivated HSV; assay: Delayed type hypersensitivity (DTH), ear pinna swelling at 24, 48 and 96 hours (FIG. 6); format: in vivo, Balb/c mice; conditions: 4 weeks after last immunization, 24, 48 and 96 hours after injection of UV inactivated HSV
Description: DTH response was evaluated 4 weeks after the last immunization for the vaccinated mice and three unvaccinated HSV challenged mice which had recovered from disease (Ctrl)
(§5) The protocol used in this experiment differed slightly from that of FIG. 3. Swelling in the right ear pinna was measured by micrometer prior to and at 24, 48 and 96 hours following injection of ultraviolet inactivated HSV and compared to the left ear pinna which had been injected with an uninfected Vero cell extract.

[4] = test system: ultraviolet inactivated HSV; assay: Delayed type hypersensitivity (DTH), ear pinna swelling at 48 hours (FIG. 3); format: in vivo, Balb/c mice; conditions: vaccinated unchallenged mice, 4 weeks after last immunization, 48 hours after injection of UV inactivated HSV
Description: as §4
DTH response was evaluated 4 weeks after the last immunization for the vaccinated mice and three unvaccinated HSV challenged mice which had recovered from disease (C). Swelling of the right ear pinna was measured at 48 hours following injection of ultraviolet inactivated HSV and compared to the left ear pinna which had been injected with buffer.
In another series of parallel experiments Balb/c female mice (n=9) were vaccinated with the H1 peptide or the JH1, GH1 or LH1 conjugated polypeptides according to the same protocol as for the HSV-1 challenge experiment described above.

[5] = test system: HSV-1; assay: HSV-1 challenge of mice vaccinated with B1 peptides: survival (FIG. 7); format: in vivo; conditions: C57BI6 mice; for survival (mice surviving of 9): after day 8
Source text: In order to further establish the effectiveness of conjugated peptides according to this invention as effective vaccines for treatment of herpes simplex virus, the HSV epitope B1, which is a T cell epitope (aa 498-505, SSIEFARL) of glycoprotein B found in both HSV-1 or HSV-2 (see Hanke, et al, J. Virol. 65:1177-86; and Bonneau, et al, Virology 195:62-70) was selected and evaluated with either peptide J or peptide G or peptide L as described above. Namely, the conjugated peptides GB1, JB1 and LB1, as described in Table 1 above, were tested under the same conditions as previously described except that in place of the Balb/c mice, C57BI6 mice were vaccinated with the B1 conjugated peptides or non-conjugated B1 peptide (SEQ ID NO:4). The mice immunized with the B1 peptide or with the conjugated peptide LB1 were not protected from HSV-1 challenge (0 of 9 or 1 of 9 survival, respectively, after day 8) and, in fact the B1 and LB1 immunized mice fared worse than the control (unvaccinated) mice (2 of 9 survival after day 8).

[6] = test system: ultraviolet inactivated HSV; assay: DTH tests on unchallenged mice immunized with B1 peptides; format: in vivo; conditions: 3 unchallenged immunized C57BI6 mice
Description: as §5

[7] = test system: infected cell extracts; assay: ELISA of serum antibody response, infected cell extracts as antigen (antivirus response); format: in vivo, C57BI6 mice; conditions: vaccinated and HSV-1 challenged mice, pooled serum, 2 weeks after virus challenge
Description: (§6) The antibody responses of vaccinated and unchallenged mice, vaccinated and challenged mice and unvaccinated and challenged mice were measured by ELISA assay. Serum was obtained 7 weeks after the initial immunization or 2 weeks after the virus challenge. B1 peptide or infected cell extracts were bound to the ELISA plate as antigen. Results are shown in Table 3 and were taken from pooled serum taken from 2 or 3 mice. The results were corrected for non-specific responses by subtracting the absorbance obtained towards an unrelated antigen.

[8] = test system: B1 peptide; assay: ELISA of serum antibody response, B1 peptide as antigen; format: in vivo, C57BI6 mice
Description: as §6

[9] = test system: peptide H1; assay: ELISA of antibody responses to peptide H1; format: in vivo; conditions: immunized Balb/c mice
Description: as §4

[10] = 9 challenged mice per group, sub-lethal HSV-1 challenge, FIG. 1
[11] = vaccinated and unchallenged mice, pooled serum of 2 or 3 mice, 7 weeks after initial immunization

DLL KN GER IEK VEG GGL YRT FAG NPR A (SEQ ID NO:10) (DLLKNGERIEKVEGGGLYRTFAGNPRA) [JH1, conjugated polypeptide of Peptide J (β-2 microglobulin), GGG spacer and peptide H1 of ICP27]
disease symptoms (symptom score 1-5) [1]: protected from disease symptoms
survival / death [1]: protected from disease symptoms and death
number of mice showing significant symptoms [2, 10]: two
number of mice that died [2, 10]: one
Symptomatic conditions after viral challenge (symptom score 1-5) ([2]; FIG. 1): protected from disease
survival after viral challenge [2]: maximal survival
DTH response (redness and swelling of ear pinna) [3]: DTH was observed on each day
DTH response (redness and swelling of ear pinna) [4]: DTH was observed

DLL KNG ERI EKV EGG GSS IEF ARL (SEQ ID NO:16) (DLLKNGERIEKVEGGGSSGSSIEFARL) [JB1, conjugated polypeptide of Peptide J, GGG spacer and peptide B1 of glycoprotein B]
protection from HSV-1 challenge [5]: partial protection
survival [5]: 44.4%
survival (mice surviving of 9) [5]: 4 of 9
DTH response [6]: exhibited a DTH response
ANTIVIRUS RESPONSE (ELISA absorbance, corrected for non-specific response) [7]: 0.445
B1 PEPTIDE RESPONSE (ELISA absorbance, corrected for non-specific response) [8, 11]: 0.025

LHG PEI LDV PST GGG LYR TFA GNP RA (SEQ ID NO:13) (LHGPEILDVPSTGGGLYRTFAGNPRA) [LH1, conjugated polypeptide of Peptide L, GGG spacer and peptide H1]
disease symptoms (symptom score 1-5) [1]: severe symptoms
survival / death [1]: death
Symptomatic conditions after viral challenge (symptom score 1-5) ([2]; FIG. 1): more severe symptoms throughout the course of infection and death; also recorded: seemed to exacerbate the disease symptoms
survival after viral challenge [2]: seemed to exacerbate the disease symptoms
DTH response (redness and swelling of ear pinna) [3]: Some swelling but no redness was observed for some but not all of the mice
DTH response (redness and swelling of ear pinna) [4]: not

LHG PEI LDV PST GGG SSI EFA RL (SEQ ID NO:18) (LHGPEILDVPSTGGGSSIEFARL) [LB1, conjugated polypeptide of Peptide L, GGG spacer and peptide B1]
protection from HSV-1 challenge [5]: not protected
survival (mice surviving of 9) [5]: 1 of 9
B1 PEPTIDE RESPONSE (ELISA absorbance, corrected for non-specific response) [8, 11]: 0.031

LYRTFAGNPRA (SEQ ID NO:1) [H1, non-conjugated antigenic peptide, amino acid residues 322 to 332 of the ICP27 protein of HSV-1, reference compound]
disease symptoms (symptom score 1-5) [1]: severe symptoms
survival / death [1]: death
Symptomatic conditions after viral challenge (symptom score 1-5) ([2]; FIG. 1): more severe symptoms throughout the course of infection and death; also recorded: seemed to exacerbate the disease symptoms
survival after viral challenge [2]: seemed to exacerbate the disease symptoms
DTH response (redness and swelling of ear pinna) [3]: Some swelling but no redness was observed for some but not all of the mice
Antibody responses to the antigenic peptide by ELISA [9]: undetectable
DTH response (redness and swelling of ear pinna) [4]: not

NGQ EEK AGV VST GLI GGG LYR TFA GNP RA (SEQ ID NO:12) (NGQEEKAGVVSTGLIGGGLYRTFAGNPRA) [GH1, conjugated polypeptide of Peptide G, GGG spacer and peptide H1]
disease symptoms (symptom score 1-5) [1]: severe symptoms
survival / death [1]: death
Symptomatic conditions after viral challenge (symptom score 1-5) ([2]; FIG. 1): more severe symptoms throughout the course of infection and death; also recorded: seemed to exacerbate the disease symptoms
survival after viral challenge [2]: seemed to exacerbate the disease symptoms
DTH response (redness and swelling of ear pinna) [3]: Some swelling but no redness was observed for some but not all of the mice
DTH response (redness and swelling of ear pinna) [4]: not

NGQ EEK AGV VST GLI GGG SSI EFA RL (SEQ ID NO:17) (NGQEEKAGVVSTGLIGGGSSIEFARL) [GB1, conjugated polypeptide of Peptide G, GGG spacer and peptide B1]
protection from HSV-1 challenge [5]: partial protection
survival [5]: 55.5%
survival (mice surviving of 9) [5]: 5 of 9
DTH response [6]: did not exhibit a DTH response
B1 PEPTIDE RESPONSE (ELISA absorbance, corrected for non-specific response) ([8]; vaccinated and HSV-1 challenged mice, pooled serum, 2 weeks after virus challenge): 0.017
B1 PEPTIDE RESPONSE (ELISA absorbance, corrected for non-specific response) [8, 11]: 0.035

SSIEFARL (SEQ ID NO:4) [B1, non-conjugated antigenic peptide, amino acid residues 498 to 505 from glycoprotein B of HSV-1, reference compound]
protection from HSV-1 challenge [5]: not protected
survival (mice surviving of 9) [5]: 0 of 9
DTH response [6]: did not exhibit a DTH response
B1 PEPTIDE RESPONSE (ELISA absorbance, corrected for non-specific response) [8, 11]: 0.031
